In series [1] the test system is EMRSA-16 cells. The experiment in a line: Binding of catechins to staphylococcal cells (HPLC of unbound catechin). Further details: species or system Staphylococcus aureus. The conditions noted are these: compound added alone. An excerpt:
The method is based on Hashimoto, T. et al 1999.

Series [2] deals with MRSA strain BB568. Particulars: cited from earlier work; for MIC of oxacillin in combination with compound: fixed sub-inhibitory concentration of compound.
For series [3], the system named is EMRSA-15. The experiment in a line: MIC of compound alone, broth dilution. It is filed as cell-based, Staphylococcus aureus. The conditions noted are these: MHB + 2% NaCl, 35° C., 24 h. As to the method: (§1) Bacterial strains: S. aureus BB568 (COL-type strain that carries mecA and pT181) was provided by Professor B. Berger-Bächi. EMRSA-15 and EMRSA-16 were clinical isolates from the Royal Free Hospital, London.
(§2) Antibacterial susceptibility testing: Minimum Inhibitory Concentration (MIC) was determined by both broth and agar dilution techniques. Broth MIC testing was performed in 96-well microtitre trays with an inoculum of about 10^4 cfu in 100 μL of Mueller-Hinton broth (MHB) (Oxoid, Basingstoke, United Kingdom) supplemented with 2% NaCl. MIC determinations by agar dilution were carried out using Mueller-Hinton agar (Oxoid) with an inoculum of about 10^4 organisms per spot. For both methods, MIC values were obtained after incubation at 35° C. for 24 h. S. aureus ATCC29213 was used as the standard.
Background: Broth dilution looks for growth in wells or tubes with falling amounts of substance.

Series [4] relates to EMRSA-16. In words: MIC of compound alone, broth dilution. Type of series: cell-based, Staphylococcus aureus. The conditions noted are these: MHB + 2% NaCl, 35° C., 24 h. As for the experimental part:
as §1, §2

Series [5] has as its system S. aureus BB568. The experiment in a line: MIC of compound alone, broth dilution. Type of series: cell-based, Staphylococcus aureus. Particulars: 35° C., 24 h. As to the method:
as §1, §2

Series [6] concerns EMRSA-15. In words: MIC of oxacillin in absence or presence of fixed concentration of compound. Type of series: cell-based, Staphylococcus aureus. As for the experimental part:
as §1, §2
(§3) With the amide derivatives (21 and 24) in hand, their efficacy as modulators for β-lactam resistance in S. aureus was evaluated by determining their capcity to reduce the minimum inhibitory concentration (MIC) of oxacillin against MRSA strains BB 568, EMRSA-15 and EMRSA-16 as described in example 2.
(§4) With the B-ring modified analogues 47 and 48 in hand, their efficacy as modulators for β-lactam resistance in S. aureus was evaluated by determining their capacity to reduce the minimum inhibitory concentration (MIC) of oxacillin against MRSA strains BB 568, EMSRA-15 and EMSRA-16 (Table 5)

The subject of series [7] is EMRSA-16. Described as above. Type of series: cell-based, Staphylococcus aureus. As for the experimental part: as §1, §2, §3, §4
The test system of series [8] is S. aureus BB568. Described as above. It is filed as cell-based, Staphylococcus aureus. Particulars: BB 568. As for the experimental part:
as §1, §2, §3, §4

The test system of series [9] is MRSA strains BB 568, EMRSA-15 and EMRSA-16. The experiment in a line: Intrinsic antibacterial activity, summary over three strains. Type of series: cell-based, Staphylococcus aureus. Particulars: compound alone, in words. As for the experimental part:
as §1, §2
(§5) Sub-inhibitory concentrations (6.25, 12.5 and 25 mg/L) of both compounds were effective in reducing the MIC of all three strains examined.

Series [10] shares this test system. The experiment in a line: Modulation of oxacillin resistance, summary over three strains. Type of series: cell-based, Staphylococcus aureus. Particulars: for potency as oxacillin sensitiser compared with ECg: 6.25 mg/L of catechin gallate. As for the experimental part: as §1, §2, §5
At a concentration of 25 mg/L, ECg and the two analogues (47 and 48) fully sensitised each of the three MRSA strains to oxacillin, reducing the MICs to less than 0.5 mg/L, a figure well below the clinically-relevant breakpoint for β-lactam antbiotics.

Series [11] deals with porcine liver esterase. In words: Esterase sensitivity. The conditions noted are these: porcine liver esterase (Sigma), 10 min at 37° C. Type of series: in vitro ADME. As for the experimental part:
The product of example 1 was tested for in esterase sensitivity as compared to ECG using commercially available porcine liver esterase (Sigma).

Series [12] has as its system 40 MRSA strains. The conditions noted are these: all 40 MRSA strains; cited from earlier work.
Setting [13] is: Staphylococcus aureus, read-out: MIC.
The mark [14] stands for this setting: Staphylococcus aureus, BB568, BB 568, MHB + 2% NaCl, read-out: MIC.
The mark [15] stands for this setting: in presence of 25 mg/L compound.
[16] abbreviates: in presence of 6.25 mg/L compound.
Setting [17] is: in presence of 12.5 mg/L compound.
The mark [18] stands for this setting: Staphylococcus aureus, absence of compound, 35° C., 24 h.
[19] abbreviates: in presence of 12.5 mg/L compound, listed as ECG.

Here are results for eight compounds from US7700646B2, “Compounds for use in the treatment of infection” (The University of London, School of Pharmacy, priority 2004, dated 2010).

Molecules are shown by their SMILES. Values joined by “and” are separate entries in the source; they are usually repeats but may differ in a detail not shown here. Equal entries are not always repeated. Bounds are passed on as bounds.

In the case of `O=C(O[C@@H]1Cc2c(O)cc(O)cc2O[C@@H]1c1cc(O)c(O)c(O)c1)c1cc(O)c(O)c(O)c1` [EGCg, epigallocatechin gallate], the “Binding (%)” value in series [1] was 16.2%. Besides, the “MIC of oxacillin in combination with compound” value (shortened to “MIC of oxacillin in combination”) in [2] was 8 µg/mL.

On to `O=C(N[C@H]1Cc2c(O)cc(O)cc2O[C@@H]1c1ccc(O)c(O)c1)c1cc(O)c(O)c(O)c1` [Compound 24], for which the figures for the MIC in [3] (setting [13]), in series [4] (setting [13]) and in series [5] (setting [14]) were 256 µg/mL, 128 µg/mL and 256 µg/mL, respectively. In addition, the “Oxacillin MIC” value is “significant degree of sensitisation and 2/4” in series [6] (setting [15]); 256/512 in [7] (setting [15]); 64/64 in series [8] (setting [15]). Further, in series [9], the intrinsic antibacterial activity entry is “extremely weak intrinsic antibacterial activity”.

For the compound `O=C(O[C@@H]1Cc2c(O)cc(O)cc2O[C@@H]1c1cc(O)cc(O)c1)c1cc(O)c(O)c(O)c1` [Compound 48, (−)-3,5-dihydroxy B ring modified (−)-ECg], the MIC (usually the lowest concentration that inhibits growth of the organism) in series [3] is 64 µg/mL; in series [4], 32 µg/mL; in series [5] (BB 568, MHB + 2% NaCl) it was 128 µg/mL. For the same compound, the “Oxacillin MIC” value was 2 mg/L in series [6] (setting [16]); “≦0.5 mg/L” in series [6] (setting [17]); “≦0.5 mg/L” in [6] (setting [15]); 64 mg/L in series [7] (setting [16]); “≦0.5 mg/L” in series [7] (setting [17]); “≦0.5 mg/L” in series [7] (setting [15]). The “Oxacillin MIC” value in series [8] (setting [16]) was 16 mg/L; in series [8] (setting [17]), 1 mg/L; in [8] (setting [15]), “≦0.5 mg/L”. Moreover, the intrinsic antibacterial activity entry in [9] was “weak to moderate anti-staphylococcal activity”. In addition, the “potency as oxacillin sensitiser compared with ECg” value in series [10] was “less potent than the natural compound”.

Take `Oc1cc(O)c2c(c1)O[C@H](c1cc(O)c(O)c(O)c1)[C@H](O)C2` [EGC, epigallocatechin]: in series [2], the “MIC of oxacillin in combination” value is “inactive”.

Turning to `Cc1onc(-c2ccccc2)c1C(=O)N[C@@H]1C(=O)N2[C@@H]1SC(C)(C)[C@@H]2C(=O)O` [Oxacillin, oxacillin, reference compound], the minimum inhibitory concentration (MIC) is 32 µg/mL in series [6] (setting [18]); 512 µg/mL in series [7] (setting [18]); 256 µg/mL in series [8] (Staphylococcus aureus, BB568, absence of compound, 35° C., 24 h). Also, the “Oxacillin MIC” value in series [8] (absence of compound, 35° C., 24 h, listed as Oxacillian) is 256 mg/L. Further, the MIC for oxacillin in [2] (oxacillin alone) was 256 µg/mL.

Take `O=C(O[C@@H]1Cc2c(O)cc(O)cc2O[C@@H]1c1cccc(O)c1)c1cc(O)c(O)c(O)c1` [Compound 47, (−)-3-hydroxy B ring modified (−)-ECg]: the MIC in series [3] is over 128 µg/mL; in series [4] it was 128 µg/mL; in series [5] (BB 568, MHB + 2% NaCl), over 128 µg/mL. Moreover, the “Oxacillin MIC” value is on record as 2 mg/L in [6] (setting [16]); “≦0.5 mg/L” in [6] (setting [17]); “≦0.5 mg/L” in series [6] (setting [15]); 32 mg/L in [7] (setting [16]); 1 mg/L in [7] (setting [17]); “≦0.5 mg/L” in series [7] (setting [15]). The “Oxacillin MIC” value in series [8] (setting [16]) is recorded as 16 mg/L; in [8] (setting [17]) it was 2 mg/L; in series [8] (setting [15]) it was “≦0.5 mg/L”. In addition, the intrinsic antibacterial activity entry in series [9] is “little or no intrinsic antibacterial activity”. Besides, the “potency as oxacillin sensitiser compared with ECg” value in series [10] is given as “less potent than the natural compound”.

Turning to `O=C(O[C@@H]1Cc2c(O)cc(O)cc2O[C@@H]1c1ccc(O)c(O)c1)c1cc(O)c(O)c(O)c1` [ECg, (−)-epicatechin gallate, reference compound], the “Oxacillin MIC” value in series [6] (setting [16]) is given as “≦0.5 mg/L”; in [6] (setting [17]), “≦0.5 mg/L”; in [6] (setting [15]), “≦0.5 mg/L”; in [7] (setting [16]) it was “≦0.5 mg/L”; in series [7] (setting [17]), “≦0.5 mg/L”; in series [7] (setting [19]) it was 1 mg/L. In addition, the “Oxacillin MIC” value in [7] (setting [15]) was “≦0.5 mg/L”; in series [8] (setting [16]) it was 1 mg/L; in series [8] (setting [17]) it was “≦0.5 mg/L”; in series [8] (setting [19]) it was 1 mg/L; in series [8] (setting [15]), “≦0.5 mg/L”. Besides, in series [11], the hydrolysis by esterase result was “totally hydrolysed”. In series [1], the “Binding (%)” value turned out to be 22%. In addition, the “MIC of oxacillin in combination” value in series [2] was 1 µg/mL. The “reduction of β-lactam MIC” value in [12] is listed as “reduced the MIC values to the susceptibility breakpoint or below”.

Consider `O=C(N[C@@H]1Cc2c(O)cc(O)cc2O[C@@H]1c1ccc(O)c(O)c1)c1cc(O)c(O)c(O)c1` [Ex 1], for which the MIC in series [3] is 128/256; in [3] (setting [13]), 256 µg/mL; in series [4] it was 128/128; in series [4] (setting [13]) it was 128 µg/mL; in series [5] (BB 568, MHB + 2% NaCl) it was 128/256; in series [5] (setting [14]), 256 µg/mL. For the same compound, the “Oxacillin MIC” value is recorded as 1/1 in series [6] (setting [17]); 32/64 in series [7] (setting [17]); 1/1 in series [7] (setting [15]); 32/64 in series [8] (setting [17]); 4/8 in series [8] (setting [15]). In addition, in [9], the intrinsic antibacterial activity result is “extremely weak intrinsic antibacterial activity”. The “Oxacillin MIC, each of the three MRSA strains” value in series [10] (setting [15]) is “able to reduce the resistance to oxacillin of all three strains”. For the same compound, the hydrolysis by esterase result in [11] is reported as “not affected”.
